The record followed here is patent publication US20160200698A1, “VORTIOXETINE SALT AND CRYSTAL THEREOF, THEIR PREPARATION METHOD, PHARMACEUTICAL COMPOSITIONS AND USAGE” (HANGZHOU PUSHAI PHARMACEUTICAL TECHNOLOGY CO., LTD, priority 2013, published 2016).

Structures can show the parent of a compound that is named as a salt.

What all share (format): physicochemical
Data set [1] can be described thus: Inventors' studies of the known crystalline forms of vortioxetine hydrobromide of WO2007/144005A1. To be noted: for Stability under high-temperature conditions: hydrobromide. The source says: In studies, the inventors of the present invention found out that the multiple crystalline forms of vortioxetine hydrobromide disclosed in WO2007/144005A1 have the following disadvantages: […]

Data set [2] can be described thus: Dissolution comparison of sustained-release tablets made by the method of example 141. To be noted: water, 37° C., paddle 50 r/min. The method, then: The crystalline form of vortioxetine hemihydrobromide of the present invention and the β Form of vortioxetine hydrobromide prepared in preparation example 2 were tabletted by the method of example 141 and then subjected to dissolution comparison. Water was used as the dissolution medium. Parameter setting of the dissolution tester: The temperature was 37° C. The rotate speed of the stirring paddle was 50 r/min Take 3 ml of the dissolution medium out at 0.5, 1, 2, 6 and 12 hours respectively. Each time after sampling, 3 mL of water was added back to the dissolution medium to supplement the volume. The concentration of the dissolution medium at each time point was determined by HPLC.

Data set [3] in a line: Hygroscopicity comparison by DVS isothermal sorption curve. The settings on record: 20%-80% RH range. The method, then: Dynamic vapor sorption (DVS) data were collected using TA Instruments Q5000 TGA. The instrument control software was Thermal Advantage, and the analytical software was Universal Analysis. Usually, 1-10 mg of the sample was placed in a platinum pan and the weight change of the sample during experiments was recorded. The relative humidity was usually programmed to change from 20% to 80% and then back to 20%, and an isothermal sorption curve could be generated. Depending on specific situations, different sorption and desorption procedures might be used.
Hygroscopicity comparison: DVS isothermal sorption curves were used, and weight changes within the 20%-80% RH range were measured.

A short description of data set [4]: Stability competition test (competitive slurry, XRPD analysis). The settings on record: for Stability Competition Test: crystalline form after competitive slurry (XRPD): ethanol or water, equal quantity of both forms slurried 7 days; for Stability competition test: crystalline form after slurry (summary statement): slurried in water or ethanol, temperature not stated. As to the method: Stability competition test: An equal quantity (250 mg) of the crystalline vortioxetine hemihydrobromide form of the present invention prepared in example 4 and the β Form of vortioxetine hydrobromide prepared in preparation example 2 were respectively added to 3 mL of ethanol or water to produce suspensions. No solvate was formed in ethanol or water. The suspensions were slurried for 7 days at room temperature or at 60° C., and then XRPD characterization analyses were performed.

The nature of data set [5]: Dissolution of tablets made by the method of example 105 (paddle method, water). The settings on record: 900 mL water, 37° C., paddle 50 r/min. As to the method: The crystalline form of vortioxetine hemihydrobromide of the present invention, the β Form of vortioxetine hydrobromide prepared in preparation example 2 and the β Form of vortioxetine hydrobromide containing 20% of the crystalline form of vortioxetine hemihydrobromide of the present invention were tabletted by the method in example 105 and then subjected to phase stability comparison. Dissolution was determined by reference to the dissolution conditions of Benorilate Tablets described in 2010 Chinese Pharmacopoeia. The paddle method was used with the paddle rotation speed at 50 r/min 900 mL of water was the dissolution medium. The temperature was 37° C. Take 3 mL of the dissolution medium for sampling at 2, 10, 20, 40 and 60 min respectively. Each time after sampling, 3 mL of water was added back to dissolution medium to supplement the volume. The concentration of the dissolution medium at each time point was measured by HPLC, and the dissolution profile was plotted.

Data set [6] in a line: Storage of the crystalline form in desiccators at controlled humidity. To be noted: desiccators at 10% RH-90% RH, room temperature, 4 months. An excerpt: It is more temperature and humidity robust and is less likely to have content uniformity and stability issues during pharmaceutical production and storage, thus reduces the risk of inefficacy and safety issue caused thereby and improves dosing accuracy.

[7] abbreviates: sampling time 0.5 hours, hydrobromide.
The mark [8] stands for this setting: sampling time 1 hour, hydrobromide.
The mark [9] stands for this setting: sampling time 2 hours, hydrobromide.
Setting [10] is: sampling time 6 hours, hydrobromide.
The mark [11] stands for this setting: sampling time 12 hours, hydrobromide.
[12] abbreviates: listed as the known β Form of vortioxetine hydrobromide, hydrobromide.
[13] abbreviates: sampling time 2 min, hydrobromide.
Setting [14] is: sampling time 10 min, hydrobromide.
[15] abbreviates: sampling time 20 min, hydrobromide.
The mark [16] stands for this setting: sampling time 40 min, hydrobromide.
Setting [17] is: sampling time 0.5 hours, hemihydrobromide.
The mark [18] stands for this setting: sampling time 1 hour, hemihydrobromide.
The mark [19] stands for this setting: sampling time 2 hours, hemihydrobromide.
[20] abbreviates: sampling time 6 hours, hemihydrobromide.
Where [21] appears, read: sampling time 12 hours, hemihydrobromide.
[22] abbreviates: sampling time 2 min, hemihydrobromide.
Where [23] appears, read: sampling time 10 min, hemihydrobromide.
Setting [24] is: sampling time 20 min, hemihydrobromide.
Where [25] appears, read: sampling time 40 min, hemihydrobromide.

For `Cc1ccc(Sc2ccccc2N2CCNCC2)c(C)c1` [γ Form of vortioxetine hydrobromide, vortioxetine hydrobromide], the “Stability (general finding)” value in data set [1] is listed as “very unstable”. For the same compound, the Hygroscopicity in data set [1] (low-humidity conditions) is listed as 2.0%.
With `Cc1ccc(Sc2ccccc2N2CCNCC2)c(C)c1` [ethyl acetate solvate of vortioxetine hydrobromide], the “Stability under high-humidity conditions” value in data set [1] (high-humidity conditions) was “transformed to hydrate”. Further, the “Stability under high-temperature conditions” value in data set [1] is on record as “lost ethyl acetate”.
Take `Cc1ccc(Sc2ccccc2N2CCNCC2)c(C)c1` [α Form of vortioxetine hydrobromide, vortioxetine hydrobromide]: in data set [1] (room temperature), the “Crystalline form stability at room temperature” value is “transformed to the β Form of vortioxetine hydrobromide”.
In the case of `Cc1ccc(Sc2ccccc2N2CCNCC2)c(C)c1` [hydrate of vortioxetine hydrobromide, vortioxetine hydrobromide], the “Stability under high-temperature conditions” value in data set [1] is “lost water”.
Regarding `Cc1ccc(Sc2ccccc2N2CCNCC2)c(C)c1` [the β Form of vortioxetine hydrobromide, 1-[2-(2,4-dimethylphenylsulfanyl)phenyl]piperazine hydrobromide], the Concentration in data set [2] (setting [7]) was 16370 ng/mL; in data set [2] (setting [8]) it was 29710 ng/mL; in data set [2] (setting [9]), 30810 ng/mL; in data set [2] (setting [10]) it was 31560 ng/mL; in data set [2] (setting [11]), 33420 ng/mL; in data set [5] (setting [13]), 13120 ng/mL. The Concentration in data set [5] (setting [14]) was found to be 28050 ng/mL; in data set [5] (setting [15]), 30020 ng/mL; in data set [5] (setting [16]), 31660 ng/mL; in data set [5] (sampling time 60 min, hydrobromide), 33420 ng/mL. In addition, the Cumulative dissolution in data set [2] (setting [7]) is recorded as 50.0%; in data set [2] (setting [8]), 90.9%; in data set [2] (setting [9]), 94.2%; in data set [2] (setting [10]) it was 96.5%; in data set [2] (setting [11]) it was 100.0%; in data set [5] (setting [13]) it was 40.1%. In addition, the Cumulative dissolution in data set [5] (setting [14]) is recorded as 85.8%; in data set [5] (setting [15]), 91.8%; in data set [5] (setting [16]), 96.8%. The “Hygroscopicity Comparison (weight change)” value in data set [3] (setting [12]) is 0.60%. In addition, the “Stability Competition Test: crystalline form after competitive slurry (XRPD)” value in data set [4] (60° C., listed as the known β Form of vortioxetine hydrobromide, hydrobromide) is recorded as “completely transformed into the vortioxetine hemihydrobromide crystalline form of the present invention”; in data set [4] (room temperature, listed as the known β Form of vortioxetine hydrobromide, hydrobromide) it was “completely transformed into the vortioxetine hemihydrobromide crystalline form of the present invention”. The “Stability competition test: crystalline form after slurry (summary statement)” value in data set [4] (hydrobromide) is “failed to maintain its original crystalline form and transformed to the vortioxetine hemihydrobromide crystalline form of the present invention”; in data set [4] (setting [12]) it was “completely transformed to the crystalline vortioxetine hemihydrobromide of the present invention”; in data set [4] (listed as β Form of vortioxetine hydrobromide, hydrobromide), “failed to maintain its original crystalline form”.
In the case of `Cc1ccc(Sc2ccccc2N2CCNCC2)c(C)c1` [vortioxetine hydrobromide isopropanol solvate], the “Crystalline form after storage” value in data set [6] is recorded as “remained unchanged”.
For `Cc1ccc(Sc2ccccc2N2CCNCC2)c(C)c1` [vortioxetine hemihydrobromide], the Concentration in data set [2] (setting [17]) stood at 2250 ng/mL; in data set [2] (setting [18]) it was 3980 ng/mL; in data set [2] (setting [19]) it was 7650 ng/mL; in data set [2] (setting [20]), 12640 ng/mL; in data set [2] (setting [21]) it was 26330 ng/mL; in data set [5] (setting [22]), 2270 ng/mL. Further, the Concentration in data set [5] (setting [23]) was 4320 ng/mL; in data set [5] (setting [24]) it was 7720 ng/mL; in data set [5] (setting [25]), 11330 ng/mL; in data set [5] (sampling time 60 min, hemihydrobromide) it was 27860 ng/mL. The Cumulative dissolution in data set [2] (setting [17]) was determined as 8.1%; in data set [2] (setting [18]), 14.3%; in data set [2] (setting [19]) it was 27.4%; in data set [2] (setting [20]) it was 58.5%; in data set [2] (setting [21]), 94.5%; in data set [5] (setting [22]), 8.2%. For the same compound, the Cumulative dissolution in data set [5] (setting [23]) worked out at 15.5%; in data set [5] (setting [24]), 27.7%; in data set [5] (setting [25]), 52.4%; in data set [5] (sampling time 60 min), 100.0%. Also, the “Hygroscopicity Comparison (weight change)” value in data set [3] (listed as Example 4, hemihydrobromide) was 0.28%; in data set [3] (listed as the vortioxetine hemihydrobromide crystalline form of the present invention, hemihydrobromide), 0.28%. The “Stability Competition Test: crystalline form after competitive slurry (XRPD)” value in data set [4] (60° C., listed as the vortioxetine hemihydrobromide crystalline form of the present invention, hemihydrobromide) was “present invention kept unchanged””; in data set [4] (room temperature, listed as the vortioxetine hemihydrobromide crystalline form of the present invention, hemihydrobromide) it was “present invention kept unchanged””. For the same compound, the “Stability competition test: crystalline form after slurry (summary statement)” value in data set [4] (hemihydrobromide) is on record as “keeping its crystalline form unchanged”.
